Where two headings read alike, the source gives them in different places.
How the values were obtained:
Assay type in all cases: cell-based
[1] = test system: IL-21; test: Cytokine release after LPS induction on human whole blood: IL-21
Procedure: (§1) Aim of this in vitro method is to assess compounds effects on release of a panel of cytokines from whole blood following lipopolysaccharide (LPS) induced inflammatory reaction. Whole blood was incubated with compounds for 1 h prior to LPS induction. Cytokine levels in blood were measured using a multiplex FACS-based panel.
(§2) IC50 values determined for the tested compounds expressed in microM [μM] and the values for the inhibition of cytokines were listed for each compound.
(§3) Effect on cytokines release after LPS induction was performed on the compounds dissolved in DMSO or H2O to reach 10-fold concentrated stock solutions and dissolved in culture media.
(§4) Test system: Whole blood was removed from a single donor (into lithium heparin coated tubes; BD Vacutainer; 367886) and diluted 1:5 with RPMI 1640 (Thermo Fisher, 61870036). Within 30 minutes of sampling, blood was incubated with compounds for 1 h prior to LPS stimulation (O111:B4—Sigma L4391; 10 ng/ml final concentration). Stimulation continued under standard cell culture conditions (37° C. with 5% CO2) overnight (18 h), after which plates were centrifuged and supernatant removed and frozen at −80° C. until used for analyses.
(§5) Dilution of test compounds: 10×concentrated solutions (concerning to the final assay concentrations) of each test compound were prepared with the appropriate solvent (in DMSO or in water). These 10× compound solutions (10 μl) were then added to 90 μl pre-diluted whole blood (whole blood: RPMI1640, 1:5) resulting in the final assay concentration.
(§6) Test method: Diluted whole blood (80 μl) was pre-incubated with compounds (10 μl) to give final assay concentrations of 100, 30, 10, 3, 1, 0.3 and 0.1×10^−6M. Blood was incubated at 37° C. with 5% CO2 for 1 h. LPS was diluted in cell culture media to a concentration of […]; 10 μl was added to the whole blood to give a final concentration of 10 ng/ml. Plates were incubated at 37° C. for 18 h. Plates were centrifuged at 3,000 RPM for 5 minutes at 4° C. and supernatant removed and frozen at −80° C. until FACS analysis was carried out.
(§7) Cytokine release was measured using a custom multiplex system (ELISA Genie) according to manufacturers instructions. Prepared samples were run on an Attune NxT flow cytometer (Thermo Fisher).
(§8) Quantification of cytokine release inhibition: known concentration standards were run as part of the cytokine panel to allow quantification of each cytokine concentration in each sample. This was carried out using FCAP Array v3.0 software.
(§9) Results: The dose response relationship on cytokine release following LPS induction of inflammatory response in whole blood was assessed for all compounds. IC50 values were determined for each compound for a panel of cytokines (GM-CSF, IFN-gamma, IL-1beta, IL-2, IL-4, IL-5, IL-6, IL-8, IL-9, IL-10, IL-12p40, IL-13, IL-17A, IL-17F, IL-18, IL-21, IL-22, IL-33, TGF-beta, TNF-alpha, TNF-beta).

[2] = test system: IL-17F; test: Cytokine release after LPS induction on human whole blood: IL-17F
Procedure: as §1, §2, §3, §4, §5, §6, §7, §8, §9

[3] = test system: TNF-alpha; test: Cytokine release after LPS induction on human whole blood: TNFα
Procedure: as §1, §2, §3, §4, §5, §6, §7, §8, §9

[4] = test system: IL-33; test: Cytokine release after LPS induction on human whole blood: IL-33
Procedure: as §1, §2, §3, §4, §5, §6, §7, §8, §9

[5] = test system: IL-13; test: Cytokine release after LPS induction on human whole blood: IL-13
Procedure: as §1, §2, §3, §4, §5, §6, §7, §8, §9

[6] = test system: IL-12p70; test: Cytokine release after LPS induction on human whole blood: IL-12p70
[7] = test system: TNF-beta; test: Cytokine release after LPS induction on human whole blood: TNFβ
Procedure: as §1, §2, §3, §4, §5, §6, §7, §8, §9

[8] = test system: IL-6; test: Cytokine release after LPS induction on human whole blood: IL-6
Procedure: as §1, §2, §3, §4, §5, §6, §7, §8, §9

[9] = test system: IL-10; test: Cytokine release after LPS induction on human whole blood: IL-10
Procedure: as §1, §2, §3, §4, §5, §6, §7, §8, §9

[10] = Homo sapiens, LPS 10 ng/ml, 18 h, read-out: Whole Blood: IL-21 IC50
[11] = human whole blood, inhibition of LPS induced inflammation, read-out: IC50 IL-21
[12] = Homo sapiens, LPS 10 ng/ml, 18 h, read-out: Whole Blood: IL-17F IC50
[13] = human whole blood, inhibition of LPS induced inflammation, read-out: IC50 IL-17F
[14] = Homo sapiens, LPS 10 ng/ml, 18 h, read-out: Whole Blood: TNF α IC50
[15] = human whole blood, inhibition of LPS induced inflammation, read-out: IC50 TNFa
[16] = Homo sapiens, LPS 10 ng/ml, 18 h, read-out: Whole Blood: IL-33 IC50
[17] = human whole blood, inhibition of LPS induced inflammation, read-out: IC50 IL-33
[18] = Homo sapiens, LPS 10 ng/ml, 18 h, read-out: Whole Blood: IL-13 IC50
[19] = human whole blood, inhibition of LPS induced inflammation, read-out: IC50 IL-13
[20] = Homo sapiens, LPS 10 ng/ml, 18 h, read-out: Whole Blood: IL-12p70 IC50
[21] = human whole blood, inhibition of LPS induced inflammation, read-out: IC50 IL-12p70
[22] = Homo sapiens, LPS 10 ng/ml, 18 h, read-out: Whole Blood: TNF β IC50
[23] = human whole blood, inhibition of LPS induced inflammation, read-out: IC50 β
[24] = Homo sapiens, LPS 10 ng/ml, 18 h, read-out: Whole Blood: IL-6 IC50
[25] = human whole blood, inhibition of LPS induced inflammation, read-out: IC50 IL-6
[26] = Homo sapiens, LPS 10 ng/ml, 18 h, read-out: Whole Blood: IL-10 IC50
[27] = human whole blood, inhibition of LPS induced inflammation, read-out: IC50 IL-10

Compound | IC50 [1, 10] | IC50 [1, 11] | IC50 [2, 12] | IC50 [2, 13] | IC50 [3, 14] | IC50 [3, 15] | IC50 [4, 16] | IC50 [4, 17] | IC50 [5, 18] | IC50 [5, 19] | IC50 [6, 20] | IC50 [6, 21] | IC50 [7, 22] | IC50 [7, 23] | IC50 [8, 24] | IC50 [8, 25] | IC50 [9, 26] | IC50 [9, 27]
O=C(O)Cc1cc(O)c(C(=O)Nc2ccccc2-c2nnn[nH]2)cc1O [IIIa-001aTz] | 3 µM | 3 µM | 0.16 µM | 0.16 µM | 0.31 µM | 0.31 µM | 0.14 µM | 0.14 µM | 0.15 µM | 0.15 µM | 0.48 µM | 0.48 µM | 0.23 µM | 0.23 µM | 1.98 µM | 1.98 µM | 7.78 µM | 7.78 µM
O=C(O)Cc1cc(O)c(C(=O)Nc2c(C(=O)O)cccc2C(=O)O)cc1O [IIIa-013a, 2-(4-(carboxymethyl)-2,5-dihydroxybenzamido)isophthalic acid] | 1.63 µM | 1.63 µM | 0.41 µM | 0.41 µM | 0.51 µM | 0.51 µM | 1.11 µM | 1.11 µM | 0.37 µM | 0.37 µM | 0.5 µM | 0.5 µM | 0.89 µM | 0.89 µM | 3.55 µM | 3.55 µM | 37.3 µM | 37.3 µM
CC(=O)N(Cc1cc(O)c(C(=O)O)cc1O)Cc1cc(O)c(C(=O)O)cc1O [IIIc-057a, N,N-Bis(4-carboxy-2,5-dihydroxyphenylmethyl)acetamide] | 1.56 µM | 1.56 µM | 5.06 µM | 5.06 µM | 0.15 µM | 0.15 µM | 2.93 µM | 2.93 µM | 4.73 µM | 4.73 µM | 0.73 µM | 0.73 µM | 1.58 µM | 1.58 µM | 0.19 µM | 0.19 µM | > 100 µM | 100 µM
O=C(O)c1cc(O)c(CN(Cc2cc(O)c(C(=O)O)cc2O)Cc2cc(O)c(C(=O)O)cc2O)cc1O [IIIc-061a, Tris(4-carboxy-2,5-dihydroxyphenylmethyl)amine] | 6.38 µM | 6.38 µM | 0.32 µM | 0.32 µM | 0.03 µM | 0.03 µM | 0.31 µM | 0.31 µM | 0.31 µM | 0.31 µM | 37.2 µM | 37.2 µM | 0.81 µM | 0.81 µM | 0.18 µM | 0.18 µM | 17.9 µM | 17.9 µM
O=C(O)c1ccccc1CNC(=O)c1cc(O)cc(C(=O)O)c1O [IIa-053a, 3-(2-Carboxyphenylmethylaminocarbonyl)-2,5-dihydroxybenzoic acid] | > 100 µM | 100 µM | 28.8 µM | 28.8 µM | 0.02 µM | 0.02 µM | 12.1 µM | 12.1 µM | 29.9 µM | 29.9 µM | 0.27 µM | 0.27 µM | 91.5 µM | 91.5 µM | 2.2 µM | 2.2 µM | > 100 µM | 100 µM

Reference: patent US20230150951A1, “2,5- OR 2,6-DISUBSTITUTED HYDROQUINONE DERIVATIVES WITH AT LEAST ONE CARBOXY, SULFO OR AMIDO GROUP USEFUL AS MEDICAMENTS” (OM PHARMA SA, priority 2020, published 2023)
